Laboratory results: ChEMBL document CHEMBL4138174, “Design and synthesis of novel C14-urea-tetrandrine derivatives with potent anti-cancer activity” (Eur J Med Chem, 2018)
Activity calls are given as the source filed them. No cut-off for these calls is given here.

Tests used:
[1] = tested on: PC-3; assay: Induction of apoptosis in human PC3 cells assessed as cell shrinkage at 2.5 uM after 24 hrs by Hoechst 33258 staining based inverted microscopic analysis; type: functional
[2] = tested on: PC-3; assay: Induction of apoptosis in human PC3 cells assessed as increase in cleaved caspase 3 levels at 2.5 uM after 24 hrs by Western blot analysis; type: functional, cell-based
[3] = tested on: PC-3; assay: Induction of apoptosis in human PC3 cells after 24 hrs by Annexin V-FITC/propidium iodide double staining based flow cytometry; type: functional, cell-based
[4] = tested on: PC-3; assay: Induction of apoptosis in human PC3 cells assessed as formation of apoptotic bodies at 2.5 uM after 24 hrs by 33258-based inverted fluorescence microscopy; type: functional, cell-based
[5] = tested on: PC-3; assay: Induction of apoptosis in human PC3 cells assessed as increase in cleaved PARP levels at 2.5 uM after 24 hrs by Western blot analysis; type: functional, cell-based
[6] = tested on: PC-3; assay: Induction of apoptosis in human PC3 cells assessed as chromatin condensation at 2.5 uM after 24 hrs by Hoechst 33258-based inverted fluorescence microscopy; type: functional, cell-based
[7] = tested on: PC-3; assay: Induction of apoptosis in human PC3 cells assessed as reduction in full length PARP protein levels at 2.5 uM after 24 hrs by Western blot analysis; type: functional, cell-based
[8] = tested on: PC-3; assay: Induction of apoptosis in human PC3 cells assessed as reduction in inactive pro-caspase-9 levels at 2.5 uM after 24 hrs by Western blot analysis; type: functional, cell-based
[9] = tested on: PC-3; assay: Induction of apoptosis in human PC3 cells assessed as decrease in cell membrane smoothness at 2.5 uM after 24 hrs by inverted microscopic analysis; type: functional, cell-based
[10] = tested on: PC-3; assay: Induction of apoptosis in human PC3 cells assessed as increase in survivin levels at 2.5 uM after 24 hrs by Western blot analysis; type: functional, cell-based
[11] = tested on: PC-3; assay: Induction of apoptosis in human PC3 cells assessed as activation of BAX at 2.5 uM after 24 hrs by Western blot analysis; type: functional, cell-based
[12] = tested on: PC-3; assay: Induction of apoptosis in human PC3 cells assessed as shrunken nucleus at 2.5 uM after 24 hrs by inverted microscopic analysis; type: functional, cell-based
[13] = tested on: PC-3; assay: Induction of apoptosis in human PC3 cells assessed as increase in cleaved caspase 9 levels at 2.5 uM after 24 hrs by Western blot analysis; type: functional, cell-based
[14] = tested on: PC-3; assay: Induction of apoptosis in human PC3 cells assessed as suppression of bcl2 at 2.5 uM after 24 hrs by Western blot analysis; type: functional, cell-based
[15] = tested on: PC-3; assay: Potency index, ratio of cisplatin IC50 to compound IC50 for human PC3 cells; type: functional
[16] = tested on: PC-3; assay: Induction of apoptosis in human PC3 cells assessed as necrotic cells at 2 uM after 24 hrs by Annexin V-FITC/propidium iodide double staining based flow cytometry (reference value: 0.9%); type: functional
[17] = tested on: PC-3; assay: Induction of apoptosis in human PC3 cells assessed as necrotic cells at 1 uM after 24 hrs by Annexin V-FITC/propidium iodide double staining based flow cytometry (reference value: 0.9%); type: functional
[18] = tested on: PC-3; assay: Induction of apoptosis in human PC3 cells assessed as late apoptotic cells at 2 uM after 24 hrs by Annexin V-FITC/propidium iodide double staining based flow cytometry (reference value: 0.4%); type: functional
[19] = tested on: PC-3; assay: Induction of apoptosis in human PC3 cells assessed as early apoptotic cells at 0.5 uM after 24 hrs by Annexin V-FITC/propidium iodide double staining based flow cytometry (reference value: 0.8%); type: functional
[20] = tested on: PC-3; assay: Induction of apoptosis in human PC3 cells assessed as viable cells at 2 uM after 24 hrs by Annexin V-FITC/propidium iodide double staining based flow cytometry (reference value: 97.9%); type: functional; conditions: PC-3, 24 h, read-out: Activity
[21] = tested on: MDA-MB-231; assay: Cytotoxicity against human MDA-MB-231 cells assessed as reduction in cell viability after 48 hrs by MTT assay; type: functional, cell-based; conditions: Homo sapiens, MDA-MB-231, 48 h
[22] = tested on: PC-3; assay: Induction of apoptosis in human PC3 cells assessed as early apoptotic cells at 1 uM after 24 hrs by Annexin V-FITC/propidium iodide double staining based flow cytometry (reference value: 0.8%); type: functional
[23] = tested on: PC-3; assay: Induction of apoptosis in human PC3 cells assessed as late apoptotic cells at 0.5 uM after 24 hrs by Annexin V-FITC/propidium iodide double staining based flow cytometry (reference value: 0.4%); type: functional
[24] = tested on: PC-3; assay: Cytotoxicity against human PC3 cells assessed as reduction in cell viability after 48 hrs by MTT assay; type: functional, cell-based
[25] = tested on: PC-3; assay: Induction of apoptosis in human PC3 cells assessed as necrotic cells at 3 uM after 24 hrs by Annexin V-FITC/propidium iodide double staining based flow cytometry (reference value: 0.9%); type: functional
[26] = Cytotoxicity against human WM9 cells assessed as reduction in cell viability after 48 hrs by MTT assay; type: functional, cell-based; conditions: Homo sapiens, WM9, 48 h
[27] = tested on: PC-3; assay: Induction of apoptosis in human PC3 cells assessed as viable cells at 0.5 uM after 24 hrs by Annexin V-FITC/propidium iodide double staining based flow cytometry (reference value: 97.9%); type: functional; conditions: PC-3, 24 h, read-out: Activity
[28] = tested on: PC-3; assay: Potency index, ratio of 5-fluorouracil IC50 to compound IC50 for human PC3 cells; type: functional
[29] = tested on: PC-3; assay: Induction of apoptosis in human PC3 cells assessed as early apoptotic cells at 2 uM after 24 hrs by Annexin V-FITC/propidium iodide double staining based flow cytometry (reference value: 0.8%); type: functional
[30] = tested on: PC-3; assay: Induction of apoptosis in human PC3 cells assessed as viable cells at 3 uM after 24 hrs by Annexin V-FITC/propidium iodide double staining based flow cytometry (reference value: 97.9%); type: functional; conditions: PC-3, 24 h, read-out: Activity
[31] = tested on: PC-3; assay: Induction of apoptosis in human PC3 cells assessed as necrotic cells at 0.5 uM after 24 hrs by Annexin V-FITC/propidium iodide double staining based flow cytometry (reference value: 0.9%); type: functional
[32] = tested on: PC-3; assay: Induction of apoptosis in human PC3 cells assessed as viable cells at 1 uM after 24 hrs by Annexin V-FITC/propidium iodide double staining based flow cytometry (reference value: 97.9%); type: functional; conditions: PC-3, 24 h, read-out: Activity
[33] = tested on: PC-3; assay: Induction of apoptosis in human PC3 cells assessed as late apoptotic cells at 3 uM after 24 hrs by Annexin V-FITC/propidium iodide double staining based flow cytometry (reference value: 0.4%); type: functional
[34] = tested on: PC-3; assay: Induction of apoptosis in human PC3 cells assessed as late apoptotic cells at 1 uM after 24 hrs by Annexin V-FITC/propidium iodide double staining based flow cytometry (reference value: 0.4%); type: functional
[35] = tested on: K562; assay: Cytotoxicity against human K562 cells assessed as reduction in cell viability after 48 hrs by MTT assay; type: functional, cell-based
[36] = tested on: PC-3; assay: Induction of apoptosis in human PC3 cells assessed as early apoptotic cells at 3 uM after 24 hrs by Annexin V-FITC/propidium iodide double staining based flow cytometry (reference value: 0.8%); type: functional
[37] = tested on: HEL; assay: Cytotoxicity against human HEL cells assessed as reduction in cell viability after 48 hrs by MTT assay; type: functional, cell-based; conditions: Homo sapiens, HEL, 48 h

COc1cc(NC(=S)Nc2ccc(F)cc2)c2cc1Oc1ccc(cc1)C[C@H]1c3cc(c(OC)cc3CCN1C)Oc1c(OC)c(OC)cc3c1[C@H](C2)N(C)CC3 [listing 1 of 2 here]
Activity [1]: Active
Activity [2]: Active
Activity [3]: Dose-dependent effect
Activity [4]: Active
Activity [5]: Active
Activity [6]: Active
Activity [7]: Active
Activity [8]: Active
Activity [9]: Active
Activity [10]: Active
Activity [11]: Active
Activity [12]: Active
Activity [13]: Active
Activity [14]: Active

COc1cc(NC(=S)Nc2ccc(F)cc2)c2cc1Oc1ccc(cc1)C[C@H]1c3cc(c(OC)cc3CCN1C)Oc1c(OC)c(OC)cc3c1[C@H](C2)N(C)CC3 [listing 2 of 2 here]
Ratio IC50 [15]: 26
Activity [16]: 0.4%
Activity [17]: 0.3%
Activity [18]: 2.8%
Activity [19]: 5.3%
viability at 2 µM [20]: 83.3%
IC50 [21]: 2.03 µM
Activity [22]: 11.63%
Activity [23]: 0.9%
IC50 ([24]; Homo sapiens, PC-3, 48 h): 0.64 µM
Activity [25]: 0.1%
IC50 [26]: 2.6 µM
viability at 0.5 µM [27]: 93.3%
Ratio IC50 [28]: 31
Activity [29]: 13.6%
viability at 3 µM [30]: 63.3%
Activity [31]: 0.5%
viability at 1 µM [32]: 87.7%
Activity [33]: 2.1%
Activity [34]: 0.7%
IC50 ([35]; Homo sapiens, K562, 48 h): 1.56 µM
Activity [36]: 34.4%
IC50 [37]: 2.55 µM

CCCCNC(=O)Nc1cc(OC)c2cc1C[C@H]1c3c(cc(OC)c(OC)c3Oc3cc4c(cc3OC)CCN(C)[C@H]4Cc3ccc(cc3)O2)CCN1C
IC50 [21]: 5.4 µM
IC50 ([24]; Homo sapiens, PC-3, 48 h): 0.88 µM
IC50 [26]: 5.12 µM
IC50 ([35]; k562): 6.88 µM
IC50 [37]: 4.53 µM

CCCCNC(=S)Nc1cc(OC)c2cc1C[C@H]1c3c(cc(OC)c(OC)c3Oc3cc4c(cc3OC)CCN(C)[C@H]4Cc3ccc(cc3)O2)CCN1C
IC50 [21]: 5.66 µM
IC50 ([24]; pc-3): 3.03 µM
IC50 [26]: 4.27 µM
IC50 ([35]; Homo sapiens, K562, 48 h): 2.39 µM
IC50 [37]: 3.68 µM

COc1cc(NC(=O)NCc2ccccc2)c2cc1Oc1ccc(cc1)C[C@H]1c3cc(c(OC)cc3CCN1C)Oc1c(OC)c(OC)cc3c1[C@H](C2)N(C)CC3
IC50 [21]: 6.99 µM
IC50 ([24]; Homo sapiens, PC-3, 48 h): 5.73 µM
IC50 [26]: 6.14 µM
IC50 ([35]; Homo sapiens, K562, 48 h): 4.59 µM
IC50 [37]: 8.02 µM

COc1ccc2cc1Oc1ccc(cc1)C[C@H]1c3cc(c(OC)cc3CCN1C)Oc1c(OC)c(OC)cc3c1[C@H](C2)N(C)CC3 [FANCHININ]
IC50 [21]: 22 µM
IC50 ([24]; Homo sapiens, PC-3, 48 h): 7.87 µM
IC50 [26]: 11 µM
IC50 ([35]; Homo sapiens, K562, 48 h): 13.8 µM
IC50 [37]: 16.8 µM

COc1cc(NC(=O)N2c3ccccc3Sc3ccccc32)c2cc1Oc1ccc(cc1)C[C@H]1c3cc(c(OC)cc3CCN1C)Oc1c(OC)c(OC)cc3c1[C@H](C2)N(C)CC3
IC50 [21]: 4.14 µM
IC50 ([24]; Homo sapiens, PC-3, 48 h): 2.95 µM
IC50 [26]: 3.21 µM
IC50 ([35]; Homo sapiens, K562, 48 h): 2.49 µM
IC50 [37]: 3.32 µM

COc1cc(NC(=O)N2CCN(S(C)(=O)=O)C2=O)c2cc1Oc1ccc(cc1)C[C@H]1c3cc(c(OC)cc3CCN1C)Oc1c(OC)c(OC)cc3c1[C@H](C2)N(C)CC3
IC50 [21]: 4.33 µM
IC50 ([24]; Homo sapiens, PC-3, 48 h): 2.17 µM
IC50 [26]: 3.76 µM
IC50 ([35]; Homo sapiens, K562, 48 h): 3.06 µM
IC50 [37]: 5.51 µM

COc1cc(NC(=O)NC(C)(C)C)c2cc1Oc1ccc(cc1)C[C@H]1c3cc(c(OC)cc3CCN1C)Oc1c(OC)c(OC)cc3c1[C@H](C2)N(C)CC3
IC50 [21]: 12.6 µM
IC50 ([24]; Homo sapiens, PC-3, 48 h): 2.97 µM
IC50 [26]: 5.37 µM
IC50 ([35]; Homo sapiens, K562, 48 h): 4.89 µM
IC50 [37]: 11.9 µM

COc1cc(NC(=O)Nc2ccc(OC(F)(F)F)cc2)c2cc1Oc1ccc(cc1)C[C@H]1c3cc(c(OC)cc3CCN1C)Oc1c(OC)c(OC)cc3c1[C@H](C2)N(C)CC3
IC50 [21]: 4.95 µM
IC50 ([24]; Homo sapiens, PC-3, 48 h): 0.74 µM
IC50 [26]: 3.91 µM
IC50 ([35]; Homo sapiens, K562, 48 h): 1.25 µM
IC50 [37]: 4.02 µM

COc1cc(NC(=S)NC(C)C)c2cc1Oc1ccc(cc1)C[C@H]1c3cc(c(OC)cc3CCN1C)Oc1c(OC)c(OC)cc3c1[C@H](C2)N(C)CC3
IC50 [21]: 5.57 µM
IC50 ([24]; Homo sapiens, PC-3, 48 h): 2.1 µM
IC50 [26]: 3.63 µM
IC50 ([35]; Homo sapiens, K562, 48 h): 3.19 µM
IC50 [37]: 4.22 µM
